Measurements from PubChem BioAssay AID220 (DTP/NCI, 2004).
“And” between values parts separate entries of the source, which are not always exact repeats. Equal values may be shown once. Inconclusive results are not listed.

Test system: CD8F1 mice, subcutaneous mammary adenocarcinoma, T/C%
Assay: NCI In Vivo Anticancer Drug Screen. Data for tumor model Mammary Adenocarcinoma CD8F1 (subcutaneous) in CD8F1
Details: higher = larger tumour
Protocol: The antitumor activity of compounds was measured in mice bearing transplantable tumors. Survival or tumor size were measured and the results are expressed as the measurement made in the treated group (T) divided by the measurement made in the vehicle treated control group (C). The tumor model used in this assay is Mammary Adenocarcinoma CD8F1 (subcutaneous) in CD8F1

CC(C)NCC(O)COc1cccc2ccccc12 (stereo not drawn)
T/C (endpoint: mean tumor weight, dose: 4.0 mg/kg/injection, schedule: Q07DX007 (ip), vehicle: Klucel (hydroxypropylcellulose) (HPC)): 61 % of control | T/C (endpoint: mean tumor weight, dose: 8.0 mg/kg/injection, schedule: Q07DX007 (ip), vehicle: Klucel (hydroxypropylcellulose) (HPC)): 92 % of control | T/C (endpoint: mean tumor weight, dose: 32.0 mg/kg/injection, schedule: Q07DX007 (ip), vehicle: Klucel (hydroxypropylcellulose) (HPC)): 88 % of control | T/C (endpoint: mean tumor weight, dose: 64.0 mg/kg/injection, schedule: Q07DX007 (ip), vehicle: Klucel (hydroxypropylcellulose) (HPC)): 43 % of control

CCC1=C[C@H]2CN(CCc3c([nH]c4ccccc34)[C@@](C(=O)OC)(c3cc4c(cc3OC)N(C)[C@H]3[C@@](O)(C(=O)NC)[C@H](OC(C)=O)[C@]5(CC)C=CCN6CC[C@]43[C@@H]65)C2)C1
T/C (endpoint: median tumor weight (est.), dose: 0.03 mg/kg/injection, schedule: Q07DX005 (ip), vehicle: water): 93 % of control | T/C (endpoint: median tumor weight (est.), dose: 0.06 mg/kg/injection, schedule: Q07DX005 (ip), vehicle: water): 98 % of control | T/C (endpoint: median tumor weight (est.), dose: 0.12 mg/kg/injection, schedule: Q07DX005 (ip), vehicle: water): 91 % of control | T/C (endpoint: median tumor weight (est.), dose: 0.5 mg/kg/injection, schedule: Q07DX005 (ip), vehicle: saline): 86 % of control | T/C (endpoint: median tumor weight (est.), dose: 0.5 mg/kg/injection, schedule: Q07DX005 (ip), vehicle: water): 73 % of control | T/C (endpoint: median tumor weight (est.), dose: 1.0 mg/kg/injection, schedule: Q07DX005 (ip), vehicle: saline): 46 % of control | T/C (endpoint: median tumor weight (est.), dose: 1.0 mg/kg/injection, schedule: Q07DX005 (ip), vehicle: water): 57 % of control | T/C (endpoint: median tumor weight (est.), dose: 2.0 mg/kg/injection, schedule: Q07DX005 (ip), vehicle: water): 3 % of control

CCCN1COC(OCC)C(C)(C)C1 (stereo not drawn)
T/C (endpoint: median tumor weight change, dose: 50.0 mg/kg/injection, schedule: Q01DX001 (ip), vehicle: saline with Tween-80): 102 % of control | T/C (endpoint: median tumor weight change, dose: 100.0 mg/kg/injection, schedule: Q01DX001 (ip), vehicle: saline with Tween-80): 85 % of control | T/C (endpoint: median tumor weight change, dose: 125.0 mg/kg/injection, schedule: Q01DX001 (ip), vehicle: saline with Tween-80): 66 % of control | T/C (endpoint: median tumor weight change, dose: 200.0 mg/kg/injection, schedule: Q01DX001 (ip), vehicle: saline with Tween-80): 84 % of control | T/C (endpoint: median tumor weight change, dose: 250.0 mg/kg/injection, schedule: Q01DX001 (ip), vehicle: saline with Tween-80): 47 % of control | T/C (endpoint: median tumor weight change, dose: 500.0 mg/kg/injection, schedule: Q01DX001 (ip), vehicle: saline with Tween-80): 47 % of control

CCC1CN2C(=N1)c1ccccc1-c1cc(Cl)ccc12 (stereo not drawn)
T/C (endpoint: median tumor weight (est.), dose: 3.12 mg/kg/injection, schedule: Q07DX005 (ip), vehicle: saline): 82 % of control | T/C (endpoint: median tumor weight (est.), dose: 3.12 mg/kg/injection, schedule: Q07DX005 (ip), vehicle: suspension in saline): 111 % of control | T/C (endpoint: median tumor weight (est.), dose: 6.25 mg/kg/injection, schedule: Q07DX005 (ip), vehicle: saline): 42 % of control | T/C (endpoint: median tumor weight (est.), dose: 12.5 mg/kg/injection, schedule: Q07DX005 (ip), vehicle: saline): 43 % of control | T/C (endpoint: median tumor weight (est.), dose: 12.5 mg/kg/injection, schedule: Q07DX005 (ip), vehicle: suspension in saline): 98 % of control | T/C (endpoint: median tumor weight (est.), dose: 25.0 mg/kg/injection, schedule: Q07DX005 (ip), vehicle: saline): 30 % of control | T/C (endpoint: median tumor weight (est.), dose: 25.0 mg/kg/injection, schedule: Q07DX005 (ip), vehicle: suspension in saline): 64 % of control | T/C (endpoint: median tumor weight (est.), dose: 50.0 mg/kg/injection, schedule: Q07DX005 (ip), vehicle: suspension in saline): 97 % of control

S=C(Nc1ccc(Cl)c(Cl)c1)N1c2ccccc2-n2cccc2C1c1cccnc1 (stereo not drawn)
T/C (endpoint: median tumor weight change, dose: 250.0 mg/kg/injection, schedule: Q01DX001 (ip), vehicle: Klucel (hydroxypropylcellulose) (HPC)): 48 % of control and 67 % of control | T/C (endpoint: median tumor weight change, dose: 500.0 mg/kg/injection, schedule: Q01DX001 (ip), vehicle: Klucel (hydroxypropylcellulose) (HPC)): 49 % of control and 57 % of control | T/C (endpoint: median tumor weight change, dose: 1000.0 mg/kg/injection, schedule: Q01DX001 (ip), vehicle: Klucel (hydroxypropylcellulose) (HPC)): 50 % of control and 70 % of control | T/C (endpoint: median tumor weight change, dose: 2000.0 mg/kg/injection, schedule: Q01DX001 (ip), vehicle: Klucel (hydroxypropylcellulose) (HPC)): -11 % of control

CC(=S)NC(O)C(=O)c1ccccc1 (stereo not drawn)
T/C (endpoint: median tumor weight (est.), dose: 25.0 mg/kg/injection, schedule: Q07DX005 (ip), vehicle: saline with Tween-80): 79 % of control | T/C (endpoint: median tumor weight (est.), dose: 100.0 mg/kg/injection, schedule: Q07DX005 (ip), vehicle: saline with Tween-80): 96 % of control | T/C (endpoint: median tumor weight (est.), dose: 200.0 mg/kg/injection, schedule: Q07DX005 (ip), vehicle: saline with Tween-80): 111 % of control
